Assay results as given in article PMC6271395, “Synthesis and Biological Activities of Some New (N^α-Dinicotinoyl)-bis-L-Leucyl Linear and Macrocyclic Peptides” (Molecules, 2014).
pIC50: −log10 of the molar value.

Tests used:
[1] = system: Escherichia coli; assay: Agar diffusion antimicrobial test, Escherichia coli; assay type: cell-based; conditions: Gram−ve, modified Kirby–Bauer disk diffusion, 10 µg/mL
Experimental: (§1) The newly synthesized compounds 3–12 were tested for their preliminary antimicrobial activity against different microorganisms representing Gram-positive (Bacillus subtilis, Bacillus aureus and Staphylococcus aureus), Gram-negative bacteria (Escherichia coli), yeast (Candida albican) and fungi (Aspergillus niger).
(§2) The antimicrobial activities of the synthesized compounds were determined by the agar diffusion method as recommended by the national committee for clinical laboratory standards (NCCLS). The concentrations of the tested compounds (10 µg/mL) were used according to modified Kirby–Bauer’s disk diffusion method. The degree of inhibition is measured in comparison with that of chloramphinicol and fusidic acid taken as standards.

[2] = system: Bacillus subtilis; assay: Agar diffusion antimicrobial test, Bacillus subtilis; assay type: cell-based; conditions: Gram+ve, modified Kirby–Bauer disk diffusion, 10 µg/mL
Experimental: as §1, §2

[3] = system: Bacillus aureus; assay: Agar diffusion antimicrobial test, Bacillus aureus; assay type: cell-based; conditions: Gram+ve, modified Kirby–Bauer disk diffusion, 10 µg/mL
Experimental: as §1, §2

[4] = system: carrageenan-induced edema; assay: Carrageenan-induced edema (rat paw test); assay type: in vivo; conditions: one hour before carrageenan, male albino rats, eight animals per group, paws excised four hours after drug administration
Experimental: (§3) For the determination of the antiphlogistic potency of the synthesized compounds, two standard tests were realized at a dose level 2.5 and 5 mg/kg body weight of the rats, namely the protection against carrageenan-induced edema according to Winter et al. and the inhibition of plasma PGE2. The latter is known as a good confirming indicator for carrageenan-induced rat paw edema. […] For these compounds, a similar activity profile was realized for the inhibition of plasma PGE2.
(§4) Groups of adult male albino rats (150–180 g), each of eight animals were orally dosed with tested compounds at a dose level of 2.5–5 mg/kg one hour before carrageenan challenge. Foot paw edema was induced by subplantar injection of 0.05 cm^3 of a 1% suspension of carrageenan in saline into the plantar tissue of one hind paw. An equal volume of saline was injected to the other hand paw and served as control. Four hours after drug administration the animals were decapitated, blood was collected, and the paws were rapidly excised. The average weight of edema was examined for the treated as well as the control group and the percentage inhibition of weight of edema was also evaluated. Diclofenac potassium (5 mg/kg) was employed as standard reference against which the tested compounds were compared (Table 2).

[5] = system: plasma PGE2; assay: Inhibition of plasma PGE2 (EIA) in carrageenan-challenged rats; assay type: in vivo, rat; conditions: rats n = 8, blood four hours after drug administration, PGE2 EIA kit
Experimental: as §3, §4
Heparinized blood samples were collected from rats (n = 8), plasma was separated by centrifugation at 12,000 g for 2 min at […], immediately frozen, and stored at […] until use. The design correlate EIA prostaglandin E2 (PGE2) kit (Aldrich, Steinheim, Germany) is a competitive immuno assay for the quantitative determination of PGE2 in biological fluids. The kit uses a monoclonal antibody to PGE2 to bind, in a competitive manner, the PGE2 in the sample after a simultaneous incubation at room temperature. The excess reagents were washed away and the substrate was added, after a short incubation time the enzyme reaction was stopped, and the yellow color generated was read on a microplate reader DYNATech, MR 5000 at 405 nm (Dynatech Industries Inc., McLean, VA, USA). The intensity of the bound yellow color is inversely proportional to the concentration of PGE2 in either standard or samples.

[6] = system: Staphylococcus aureus; assay: Agar diffusion antimicrobial test, Staphylococcus aureus; assay type: cell-based; conditions: Gram+ve, modified Kirby–Bauer disk diffusion, 10 µg/mL
Experimental: as §1, §2

[7] = system: Aspergillus niger; assay: Agar diffusion antimicrobial test, Aspergillus niger; assay type: cell-based; conditions: Fungi, modified Kirby–Bauer disk diffusion, 10 µg/mL
Experimental: as §1, §2

[8] = system: Candida albicans; assay: Agar diffusion antimicrobial test, Candida albicans; assay type: cell-based; conditions: Yeast, modified Kirby–Bauer disk diffusion, 10 µg/mL
Experimental: as §1, §2

[9] = system: MCF7; assay type: cell-based, human; conditions: MTT, 3 days, 37 °C; at least three experiments; read-out: IC50 against breast cell line MCF7
Experimental: (§5) The cytotoxicity of the newly synthesized compounds against cancer cell lines in vitro was performed with the MTT assay according to the Mosmann’s method. The MTT assay is based on the reduction of the soluble 3-(4,5-[…]-2-thiazolyl)-2,5-diphenyl-2H-tetrazolium bromide (MTT) into a blue-purple formazan product, mainly by mitochondrial reductase activity inside living cells. The cells used in cytotoxicity assay were cultured in RPMI 1640 medium supplemented with 10% fetal calf serum. Cells suspended in the medium (2 × 10^4 mL^−^1) were plated in 96-well culture plates and incubated at 37 °C in a 5% CO2 incubator. […] The cultured cells were mixed with 20 μL of MTT solution and incubated for 4 h at 37 °C. The supernatant was carefully removed from each well and 100 μL of DMSO were added to each well to dissolve the formazan crystals which were formed by the cellular reduction of MTT. After mixing with a mechanical plate mixer, the absorbance of each well was measured by a microplate reader using a test wavelength of 570 nm. The results were expressed as the IC50, which inducing a 50% inhibition of cell growth of treated cells when compared to the growth of control cells. Each experiment was performed at least three times. There was a good reproducibility between replicate wells with standard errors below 10%.

[10] = system: MDAMB231; assay type: cell-based; conditions: MTT, 3 days, 37 °C; at least three experiments; read-out: IC50 against breast cell line MDAMB231
Experimental: as §5

[11] = system: HS578T; assay type: cell-based; conditions: MTT, 3 days, 37 °C; at least three experiments; read-out: IC50 against breast cell line HS578T
Experimental: as §5

[12] = system: MDAMB435; assay type: cell-based; conditions: MTT, 3 days, 37 °C; at least three experiments; read-out: IC50 against breast cell line MDAMB435
Experimental: as §5

| SMILES | Inhibition Zome, Escherichia coli [1] [cm] | Inhibition Zome, Bacillus subtilis [2] [cm] | Inhibition Zome, Bacillus aureus [3] [cm] | % Protection against Edema ([4]; dose 2.5 mg/kg oral) [%] | % Protection against Edema ([4]; dose 5.0 mg/kg oral) [%] | % Inhibition of Plasma PGE2 ([5]; dose 2.5 mg/kg oral) [%] | % Inhibition of Plasma PGE2 ([5]; dose 5.0 mg/kg oral) [%] | Inhibition Zome, Staphylococcus aureus [6] [cm] | Inhibition Zome, Aspergillus niger [7] [cm] | Inhibition Zome, Candida albicans [8] [cm] | pIC50 [9] | pIC50 [10] | pIC50 [11] | pIC50 [12] |
| --- | --- | --- | --- | --- | --- | --- | --- | --- | --- | --- | --- | --- | --- | --- |
| CC(C)C[C@H](NC(=O)c1cncc(C(=O)N[C@@H](CC(C)C)C(=O)NN2C(=O)c3ccccc3C2=O)c1)C(=O)NN1C(=O)c2ccccc2C1=O [Compound 7a] | 0.75 | 1.55 | 1.84 | 97.45 ± 0.054 | 98.86 ± 0.046 | 81.30 ± 0.044 | 82.48 ± 0.052 | 1.58 | 1.64 | 1.02 | – | – | – | – |
| C/C(=N\NC(=O)[C@H](CC(C)C)NC(=O)c1cncc(C(=O)N[C@@H](CC(C)C)C(=O)N/N=C(\C)c2ccc(Cl)cc2)c1)c1ccc(Cl)cc1 [Compound 9a] | 0.92 | 1.84 | 1.88 | 82.16 ± 0.076 | 93.16 ± 0.064 | 58.96 ± 0.024 | 74.58 ± 0.040 | 1.76 | 2.01 | 1.10 | – | – | – | – |
| COc1ccc(/C(C)=N/NC(=O)[C@H](CC(C)C)NC(=O)c2cncc(C(=O)N[C@@H](CC(C)C)C(=O)N/N=C(\C)c3ccc(OC)cc3)c2)cc1 [Compound 9b] | 0.75 | 1.60 | 1.74 | 79.34 ± 0.081 | 92.92 ± 0.090 | 57.90 ± 0.040 | 77.14 ± 0.052 | 1.72 | 1.88 | 1.00 | – | – | – | – |
| CC(C)C[C@H](NC(=O)c1cncc(C(=O)N[C@@H](CC(C)C)C(=O)N/N=C/c2ccc([N+](=O)[O-])cc2)c1)C(=O)N/N=C/c1ccc([N+](=O)[O-])cc1 [Compound 10d] | 0.90 | 1.85 | 2.00 | 81.00 ± 0.072 | 95.82 ± 0.062 | 63.14 ± 0.023 | 79.88 ± 0.031 | 1.92 | 2.00 | 0.96 | 9.46 | 5.44 | 5.25 | 4.24 |
